Assays:
Type in all cases: functional, organism-based, Hepacivirus hominis
[1] = tested on: Hepatitis C virus; test: Antiviral activity against HCV genotype 1a by real time PCR analysis; settings: subtype 1a
[2] = tested on: Hepatitis C virus; test: Antiviral activity against HCV genotype 1b by real time PCR analysis
[3] = tested on: Hepatitis C virus; test: Antiviral activity against HCV genotype 2a by real time PCR analysis
[4] = tested on: Hepatitis C virus; test: Antiviral activity against HCV genotype 1a harboring NS5A Y93H mutant by real time PCR analysis; settings: subtype 1a
[5] = tested on: Hepatitis C virus; test: Antiviral activity against HCV genotype 1a in presence of 10% FBS by real time PCR analysis; settings: subtype 1a
[6] = tested on: Hepatitis C virus; test: Antiviral activity against HCV genotype 1b in presence of 10% FBS by real time PCR analysis
[7] = tested on: Hepatitis C virus; test: Antiviral activity against HCV genotype 3a by real time PCR analysis

| EC50 [5] | EC50 [6] | SMILES | EC50 [1] | EC50 [2] | EC50 [3] | EC50 [4] | EC50 [7] |
| --- | --- | --- | --- | --- | --- | --- | --- |
|  |  | COCCOC(=O)N[C@H](C(=O)N1CCC[C@H]1c1ncc(-c2ccc(-c3ccc4c(c3)c(Cl)cc3nc([C@@H]5CCCN5C(=O)[C@@H](NC(=O)OCCOC)C(C)C)[nH]c34)cc2)[nH]1)C(C)C | > 1 nM | 15 nM | > 1 nM | > 1000 nM |  |
|  |  | CC(C)OC(=O)N[C@H](C(=O)N1CCC[C@H]1c1ncc(-c2ccc(-c3ccc4c(c3)c(Cl)cc3nc([C@@H]5CCCN5C(=O)[C@@H](NC(=O)OC(C)C)C(C)C)[nH]c34)cc2)[nH]1)C(C)C | > 1 nM | 35 nM |  |  |  |
| 1.4 nM | 0.2 nM | COC(=O)N[C@H](C(=O)N1CCC[C@H]1c1ncc(-c2ccc3oc(-c4ccc(-c5c[nH]c([C@@H]6C[C@@H]7CN6C(=O)[C@H](C(C)C)NC(=O)OCCCCCCO7)n5)cc4)cc3c2)[nH]1)C(C)C |  |  |  |  |  |
|  |  | COC(=O)N[C@H](C(=O)N1CCC[C@H]1c1ncc(-c2ccc(-c3ccc4c(ccc5nc([C@@H]6CCCN6C(=O)[C@@H](NC(=O)OC)C(C)C)[nH]c54)c3)cc2OCCN2CCOCC2)[nH]1)C(C)C | > 1 nM | 2 nM | > 10 nM | 1340 nM |  |
|  |  | COC(=O)N[C@H](C(=O)N1CCC[C@H]1c1nc2ccc3cc(-c4ccc(-c5cnc([C@@H]6CC[C@H]7C(=O)N[C@@H](C(C)C)C(=O)N76)[nH]5)cc4)ccc3c2[nH]1)C(C)C | 0.3 nM | 0.007 nM |  | 460 nM | 12 nM |
|  |  | COC(=O)N[C@H](C(=O)N1CCC[C@H]1c1ncc(-c2ccc(-c3ccc4c(ccc5nc([C@@H]6CCCN6C(=O)[C@@H](NC(=O)OC)C(C)C)[nH]c54)c3)cc2O)[nH]1)C(C)C | 0.08 nM | 0.004 nM | 0.2 nM | 201 nM |  |
|  |  | COC(=O)N[C@H](C(=O)N1CCC[C@H]1c1nc2ccc3cc(-c4ccc5c(c4)OCCCCCCOC(=O)N[C@@H](C(C)C)C(=O)N4CCC[C@H]4c4ncc-5[nH]4)ccc3c2[nH]1)C(C)C | 1 nM | 2 nM |  | 857 nM |  |
|  |  | COC(=O)N[C@H](C(=O)N1C[C@H](N)C[C@H]1c1ncc(-c2ccc(-c3ccc4c(ccc5nc([C@@H]6CCCN6C(=O)[C@@H](NC(=O)OC)C(C)C)[nH]c54)c3)cc2)[nH]1)C(C)C | 0.4 nM | 0.03 nM | 2 nM | 987 nM |  |
|  |  | COC(=O)N[C@@H]1C[C@@H](c2ncc(-c3ccc(-c4ccc5c(ccc6nc([C@@H]7CCCN7C(=O)[C@@H](NC(=O)OC)C(C)C)[nH]c65)c4)cc3)[nH]2)N(C(=O)[C@@H](NC(=O)OC)C(C)C)C1 | 0.2 nM | 0.009 nM | 0.05 nM | 80 nM |  |
|  |  | COC(=O)N[C@H](C(=O)N1CCC[C@H]1c1ncc(-c2ccc(-c3ccc4c(ccc5nc([C@@H]6CCCN6C(=O)[C@@H](NC(=O)OC)C(C)C)[nH]c54)c3)cc2C2CC2)[nH]1)C(C)C | 0.1 nM | 0.002 nM | 0.2 nM |  |  |
|  |  | COC(=O)N[C@H](C(=O)N1C[C@H](OC)C[C@H]1c1ncc(-c2ccc(-c3ccc4c(ccc5nc([C@@H]6[C@H]7CC[C@H](C7)N6C(=O)[C@@H](NC(=O)OC)C(C)C)[nH]c54)c3)cc2)[nH]1)C(C)C | 0.05 nM | 0.007 nM | 0.02 nM | 43 nM |  |
|  |  | COC(=O)N[C@H](C(=O)N1CCC[C@H]1c1ncc(-c2ccc3oc(-c4ccc(-c5c[nH]c([C@@H]6C[C@@H]7CN6C(=O)[C@H](C(C)C)NC(=O)OC/C=C/CCCO7)n5)cc4)cc3c2)[nH]1)C(C)C | 0.4 nM | 0.04 nM |  | 45 nM | 2 nM |
|  |  | COC(=O)N[C@H](C(=O)N1CCC[C@H]1c1ncc(-c2ccc(-c3ccc4c(c3)c(Cl)cc3nc([C@@H]5CCCN5C(=O)[C@@H](NC(=O)OC)C(C)C)[nH]c34)cc2)[nH]1)C(C)C | 0.01 nM | 0.003 nM | 0.004 nM | 121 nM |  |
|  |  | COC(=O)N[C@H](C(=O)N1CCC[C@H]1c1ncc(-c2ccc(-c3ccc4c(ccc5nc([C@@H]6[C@H]7CC[C@H](C7)N6C(=O)[C@@H](NC(=O)OC)C(C)C)[nH]c54)c3)cc2)[nH]1)C(C)C | 0.02 nM | 0.005 nM | 0.02 nM | 93 nM |  |
|  |  | CC(C)[C@H](NC(=O)OC1(C)CC1)C(=O)N1CCC[C@H]1c1ncc(-c2ccc(-c3ccc4c(c3)c(Cl)cc3nc([C@@H]5CCCN5C(=O)[C@@H](NC(=O)OC5(C)CC5)C(C)C)[nH]c34)cc2)[nH]1 | > 1 nM | 4 nM |  |  |  |
|  |  | COC(=O)N[C@H](C(=O)N1C[C@H](NC(C)=O)C[C@H]1c1ncc(-c2ccc(-c3ccc4c(ccc5nc([C@@H]6CCCN6C(=O)[C@@H](NC(=O)OC)C(C)C)[nH]c54)c3)cc2)[nH]1)C(C)C | 0.07 nM | 0.01 nM | 0.1 nM | 225 nM |  |
|  |  | COC(=O)N[C@H](C(=O)N1CCC[C@H]1c1nc2ccc3cc(-c4ccc(-c5c[nH]c([C@@H]6C[C@@H]7CN6C(=O)[C@H](C(C)C)NC(=O)OCCCCCCO7)n5)cc4)ccc3c2[nH]1)C(C)C | 0.006 nM | 0.01 nM |  | 188 nM | 0.5 nM |
|  |  | COC(=O)N[C@H](C(=O)N1CCC[C@H]1c1nc2ccc3cc(-c4ccc(-c5c[nH]c([C@@H]6C[C@@H]7CN6C(=O)[C@H](C(C)C)NC(=O)OCCC/C=C/CO7)n5)cc4)ccc3c2[nH]1)C(C)C | 0.01 nM | 0.006 nM |  | 43 nM | 0.04 nM |
|  |  | COCCO[C@@H]1C[C@@H](c2ncc(-c3ccc(-c4ccc5c(ccc6nc([C@@H]7[C@H]8CC[C@H](C8)N7C(=O)[C@@H](NC(=O)OC)C(C)C)[nH]c65)c4)cc3)[nH]2)N(C(=O)[C@@H](NC(=O)OC)C(C)C)C1 | > 1 nM | 0.01 nM | 0.1 nM | 404 nM |  |
|  |  | COC(=O)N[C@H](C(=O)N1CCC[C@H]1c1ncc(-c2ccc(-c3ccc4c(ccc5nc([C@@H]6CCCN6C(=O)[C@@H](NC(=O)OC)C(C)C)[nH]c54)c3)cc2C)[nH]1)C(C)C | 0.02 nM | 0.002 nM | 0.09 nM |  |  |
|  |  | COC(=O)N[C@H](C(=O)N1C[C@H](O)C[C@H]1c1ncc(-c2ccc(-c3ccc4c(ccc5nc([C@@H]6[C@H]7CC[C@H](C7)N6C(=O)[C@@H](NC(=O)OC)C(C)C)[nH]c54)c3)cc2)[nH]1)C(C)C | 0.2 nM | 0.007 nM | 0.4 nM | 21 nM |  |
